We go through five compounds from patent US9644201B2, “Structured peptide processing” (BICYCLE THERAPEUTICS LIMITED, priority 2009, dated 2017).

In one data set the target is T1, Cathepsin G (Homo sapiens, UniProt P08311).
T1 sequence (P08311 21-244): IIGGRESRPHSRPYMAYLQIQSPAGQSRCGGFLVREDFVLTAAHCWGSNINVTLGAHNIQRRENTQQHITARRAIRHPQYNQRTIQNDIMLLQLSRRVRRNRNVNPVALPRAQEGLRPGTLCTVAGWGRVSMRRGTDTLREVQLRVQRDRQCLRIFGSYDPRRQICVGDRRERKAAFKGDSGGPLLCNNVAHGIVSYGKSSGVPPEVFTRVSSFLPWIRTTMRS
As to the kind of experiment: Peptide conjugate digestion with Cathepsin G. Further: key: +++: substantially intact; −: completely cleaved. Format: in vitro ADME. On the procedure: (§1) For methods, see Example 3 following. The proteolysis was undertaken at 37° C. Cathepsin G and kalikrein reactions were carried out in 10 mM Tris pH 7.4, 150 mM NaCl, 10 mM MgCl2, 1 mM CaCl2, 0.1% BSA, 0.01% Triton X100, 5% DMSO. Chymotrypsin reactions were carried out in 100 mM Tris pH 7.4, 10 mM CaCl2. Pronase and proteinase K reactions were carried out in 100 mM Tris pH 7.4, 0.5% SDS. Subtilisin reactions were carried out in 50 mM KH2PO4 pH 7.5. Trypsin reactions were carried out in 67 mM sodium phosphate pH 7.6. Reaction conditions with serum involve dissolving the peptide in 1×PBS (total volume 24 μl) and 6 μl of human serum added to the reaction.
(§2) Peptides (linear and conjugates) were dissolved in water at a concentration of 1 mg/ml, giving an effective concentration of ˜0.5 mM stock solutions and the concentration determined using amino acid analysis. 2 μl of peptide conjugates ([…]) (˜30 μM in reactions depending on actual molecular weight) were dissolved in reaction buffer (see below) in a total reaction volume of 30 μl, followed by the protease (typically in the range 1, 0.1 and 0.01 μg per reaction), and samples were incubated at 37° C. for 1 hr. 10 μl aliquots were quenched into 10 μl of 1% TFA. Samples were analysed by MALDI-TOF mass spectrometry to identify the fragment peaks and thus determine the site of cleavage. Where there was ambiguity as to the cleavage site samples were analysed by either by MALDI-TOF-TOF (Bruker Ultraflex 3) or by Linear Ion Trap (Thermoscientific Orbitrap XL) to determine accurate masses.

Data set [1] is described as follows: Peptide conjugate digestion with Chymotrypsin. On Peptide digestion, intactness scale: key: +++: substantially intact; −: completely cleaved. The format is in vitro ADME. The settings on record: isolated enzyme chymotrypsin, pH 7.4; chymotrypsin 0.1 μg, after 1 hr; read-out: fraction cleaved by chymotrypsin. How it is done: as §1, §2
A further data set relates to Chymotrypsin. As to the kind of experiment: Peptide conjugate digestion with Chymotrypsin. On Peptide digestion, intactness scale: key: +++: substantially intact; −: completely cleaved. Format: in vitro ADME. On the procedure:
as §1, §2

A further data set concerns the target Kalikrein (Homo sapiens, UniProt P03952). As to the kind of experiment: Peptide conjugate digestion with Kalikrein. Format: in vitro ADME. Also noted: Peptide digestion, intactness scale: key: +++: substantially intact; −: completely cleaved. How it is done:
as §1, §2

Another data set relates to Pronase. As to the kind of experiment: Peptide conjugate digestion with Pronase. Further: key: +++: substantially intact; −: completely cleaved. The format is in vitro ADME. On the procedure:
as §1, §2

Another data set concerns the target Proteinase K (Parengyodontium album, UniProt P06873). As to the kind of experiment: Peptide conjugate digestion with Proteinase K. Also on record: key: +++: substantially intact; −: completely cleaved. Format: in vitro ADME. How it is done:
as §1, §2

The subject of another data set is Subtilisin. As to the kind of experiment: Peptide conjugate digestion with Subtilisin. Further: key: +++: substantially intact; −: completely cleaved. Format: in vitro ADME. How it is done:
as §1
(§3) Peptides (linear and conjugates) were dissolved in water at a concentration of 1 mg/ml, giving an effective concentration of ˜0.5 mM stock solutions and the concentration determined using amino acid analysis. […] Samples were analysed by MALDI-TOF mass spectrometry to identify the fragment peaks and thus determine the site of cleavage. Where there was ambiguity as to the cleavage site samples were analysed by either by MALDI-TOF-TOF (Bruker Ultraflex 3) or by Linear Ion Trap (Thermoscientific Orbitrap XL) to determine accurate masses.

Another data set deals with Trypsin. As to the kind of experiment: Peptide conjugate digestion with Trypsin. On Peptide digestion, intactness scale: key: +++: substantially intact; −: completely cleaved. Format: in vitro ADME. How it is done:
as §1, §2

Data set [2] is described as follows: Resistance to proteases in serum. The format is in vitro ADME, human. The settings on record: 37° C. On the procedure:
as §1

The target of another data set is MDM2 (res 2-125) (Homo sapiens, UniProt Q00987). As to the kind of experiment: Fluorescence anisotropy titration, affinity for MDM2. Format: binding. How it is done:
Titration experiments were run on a Horiba Jobin Yvon fluorimeter equipped with the Hamilton Microlab titrator controlled by laboratory software. […] The slit widths for excitation and emission were 5 nm and 15 nm and the integration time 10 s was used for each measurement. The intrinsic fluorescence of tryptophan in peptides 10, 48 was used to measure their binding affinity for MDM2 (res 2-125). The experiments were performed at 23° C. in PBS, 5 mM DTT. Usually 250 μl of MDM2 (150 μM) was titrated into 1.2 ml of peptide (1 μM). Titration data were analyzed with a standard 1:1 binding model by using the quadratic solution to the equilibrium Kd=[A][B]/[AB]. […] The fitting equation contained an extra term to account for linear drift.
Background: In fluorescence polarisation assays a small probe gives low polarisation when free and higher when bound to something large.

Data set [3] deals with T2, biotinylated MDM2 peptide (res 2-125) (Homo sapiens, UniProt Q00987).
T2 construct: biotinylated MDM2 peptide (res 2-125)
T2 sequence (Q00987 2-125, species assumed): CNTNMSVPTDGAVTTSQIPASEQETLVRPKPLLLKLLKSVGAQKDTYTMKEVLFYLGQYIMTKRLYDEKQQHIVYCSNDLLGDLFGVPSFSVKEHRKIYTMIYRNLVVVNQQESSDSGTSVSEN
As to the kind of experiment: Phage ELISA, binding to MDM2. The following applies: 5 mM DTT 20 min, then chymotrypsin 50 μg/ml 2 min. How it is done: 0.6 μg/mL of biotinylated MDM2 peptide (res 2-125) was immobilized on a streptavidin-coated plate (Roche). Plate was blocked with PBSM (but 4% in milk powder) and linear or TBMB-conjugated phage (10^7 TU/well in PBSM in the presence or absence of 5 mM DTT) was incubated on the plate for 50 min at room temperature. Similarly, phage was first reduced in 5 mM DTT for 20 min, treated with chymotrypsin (50 μg/ml in PBS) for 2 min, mixed with PBSM (final concentration) and incubated on the plate for 50 min at room temperature. Phage was detected using an anti-M13-HRP monoclonal antibody (1:5000, Amersham).
In general terms: ELISA stands for enzyme-linked immunosorbent assay.

The test system of another data set is various proteases. The format is in vitro ADME. How it is done: as §1, §3
Where [4] appears, read: mass spectrometric analysis of cleaved species.
[5] abbreviates: Kd, peptide+MDM2, λex=295 nm, 23° C., PBS, 5 mM DTT.
[6] abbreviates: affinity for MDM2, synthetic peptide, sub-micromolar, stated range.

Starred links: 1 amine or outer side, 2 acyl side, 3 side chain; linkers in the order of their positions; H or OH if unused. Positions of bridges follow the written chain, without caps; N, C: chain ends. Residues, ends and D or L forms follow the SMILES beside them. No end group written: not given here. *: point of attachment. TBMB = c1c(C[*:1])cc(C[*:3])cc1C[*:2]; Cam = NC(=O)C*

Chain of Proteinase K (P06873 106-384): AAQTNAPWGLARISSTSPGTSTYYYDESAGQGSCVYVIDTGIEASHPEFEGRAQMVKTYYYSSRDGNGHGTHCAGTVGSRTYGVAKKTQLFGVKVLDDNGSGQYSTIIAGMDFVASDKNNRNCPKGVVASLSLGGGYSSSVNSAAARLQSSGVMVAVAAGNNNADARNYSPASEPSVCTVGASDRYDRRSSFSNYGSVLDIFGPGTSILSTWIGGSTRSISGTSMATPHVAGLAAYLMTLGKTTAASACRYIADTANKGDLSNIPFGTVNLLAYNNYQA
Chain of MDM2 (res 2-125) (Q00987 2-125, species assumed): as the sequence (Q00987 2-125, species assumed) above
Chain of Kalikrein (P03952 20-638): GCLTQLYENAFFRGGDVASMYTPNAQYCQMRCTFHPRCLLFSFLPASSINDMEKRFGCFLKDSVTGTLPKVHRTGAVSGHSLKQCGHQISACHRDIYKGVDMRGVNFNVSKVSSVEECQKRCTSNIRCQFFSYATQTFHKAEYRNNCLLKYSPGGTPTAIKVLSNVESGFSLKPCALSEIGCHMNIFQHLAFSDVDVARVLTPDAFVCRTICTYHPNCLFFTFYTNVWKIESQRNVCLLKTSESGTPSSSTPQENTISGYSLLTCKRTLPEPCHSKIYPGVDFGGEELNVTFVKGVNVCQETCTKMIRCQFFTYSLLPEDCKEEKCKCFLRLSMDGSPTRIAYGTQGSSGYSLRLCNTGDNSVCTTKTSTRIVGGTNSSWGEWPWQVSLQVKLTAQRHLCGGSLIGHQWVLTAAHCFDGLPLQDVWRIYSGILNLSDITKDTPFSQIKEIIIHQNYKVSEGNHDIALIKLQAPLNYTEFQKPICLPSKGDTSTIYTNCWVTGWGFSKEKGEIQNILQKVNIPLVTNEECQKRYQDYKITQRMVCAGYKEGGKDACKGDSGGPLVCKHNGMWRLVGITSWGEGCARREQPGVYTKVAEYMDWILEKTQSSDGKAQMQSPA

As for `CC(C)C[C@@H]1NC(=O)[C@H](C)NC(=O)[C@H](CCC(=O)O)NC(=O)[C@H](CC(=O)O)NC(=O)[C@H](C)NC(=O)[C@@H]2CCCN2C(=O)[C@@H]2CSCc3cc(cc(c3)CSC[C@@H](C(=O)NCC(=O)O)NC1=O)CSC[C@H](NC(=O)[C@H](C)N)C(=O)N[C@@H](CO)C(=O)N[C@@H](CC(=O)O)C(=O)N[C@@H](CCCNC(=N)N)C(=O)N[C@@H](Cc1ccccc1)C(=O)N[C@@H](CCCNC(=N)N)C(=O)N[C@@H](CC(N)=O)C(=O)N2` [PK15-TBMB] (HELM PEPTIDE1{A.C.S.D.R.F.R.N.C.P.A.D.E.A.L.C.G}|CHEM1{[c1c(C[*:1])cc(C[*:3])cc1C[*:2]]}$PEPTIDE1,CHEM1,2:R3-1:R1|PEPTIDE1,CHEM1,9:R3-1:R2|PEPTIDE1,CHEM1,16:R3-1:R3$$$V2.0), the “Peptide digestion, intactness scale” value at Cathepsin G (Cathepsin G 0.01, 37° C.) is “+++”; on Cathepsin G (Cathepsin G 0.1, 37° C.) it was “+++”; with Chymotrypsin (Chymotrypsin 0.01, 37° C.) it was “+++”; in the data set with Chymotrypsin (Chymotrypsin 0.1, 37° C.), “+++”; with Chymotrypsin (Chymotrypsin 1, 37° C.), “+++”; on Kalikrein (Kalikrein 0.01, 37° C.), “+++”. Besides, the “Peptide digestion, intactness scale” value on Kalikrein (Kalikrein 0.1, 37° C.) is reported as “+++”; on Kalikrein (Kalikrein 1, 37° C.) it was “+++”; in the data set on Pronase (Pronase 0.01, 37° C.), “+++”; with Pronase (Pronase 0.1, 37° C.), “+++”; at Proteinase K (Proteinase K 0.01, 37° C.), “+++”; on Proteinase K (Proteinase K 0.1, 37° C.), “+++”. The “Peptide digestion, intactness scale” value is on record as “+++” at Proteinase K (Proteinase K 1, 37° C.); “+++” in the data set with Subtilisin (Subtilisin 0.009, 37° C.); “−” in the data set with Subtilisin (Subtilisin 9, 37° C.); “+++” with Trypsin (Trypsin 0.01, 37° C.); “−” in the data set with Trypsin (Trypsin 10, 37° C.). The metabolised at 1 h, 20 μM in [1] is roughly 50%. For the same compound, the cleavage by chymotrypsin entry in the data set on Chymotrypsin (1 μg chymotrypsin, after 1 hour) is recorded as “completely cleaved”. In addition, the chymotrypsin cleavage site entry in the data set on Chymotrypsin (setting [4]) is given as “same cleavage sites”. Moreover, the “factor of resistance, TBMB conjugate versus linear” value on Kalikrein (attack by kallikrein, by comparing different concentrations of enzyme) is “about 100 fold”. The trypsin cleavage sites result with Trypsin (setting [4]) is “same cleavage sites”. For the same compound, the “time to complete cleavage at R7” value with Trypsin (trypsin 0.1 μg) is reported as no more than 5 min. In addition, the “time for which proteolysis in serum is resisted” value in data set [2] (later times not yet tested) was “at least 48 hours”.
The Kd is a measure of binding affinity in units of concentration. Consider `CC(C)[C@@H]1NC(=O)[C@@H](NC(=O)[C@@H](N)CO)CSCc2cc3cc(c2)CSC[C@H](NC(=O)[C@H]([C@@H](C)O)NC(=O)[C@H](Cc2c[nH]c4ccccc24)NC(=O)CNC(=O)[C@H](Cc2ccccc2)NC(=O)[C@H](CCCNC(=N)N)NC1=O)C(=O)N[C@@H](CC(=O)O)C(=O)N[C@@H](CC(N)=O)C(=O)N[C@@H](CO)C(=O)N[C@@H](Cc1c[nH]c2ccccc12)C(=O)N[C@@H](Cc1c[nH]cn1)C(=O)NCC(=O)N[C@H](C(=O)N[C@@H](CCCCN)C(=O)NCC(=O)O)CSC3` [PEP48] (HELM PEPTIDE1{S.C.V.R.F.G.W.T.C.D.N.S.W.H.G.C.K.G}|CHEM1{[c1c(C[*:1])cc(C[*:3])cc1C[*:2]]}$PEPTIDE1,CHEM1,2:R3-1:R1|PEPTIDE1,CHEM1,9:R3-1:R2|PEPTIDE1,CHEM1,16:R3-1:R3$$$V2.0), for which the Kd is 760 nM at MDM2 (res 2-125) (Kd, peptide+MDM2, λex=280 nm); 567 nM on MDM2 (res 2-125) (setting [5]); 250 to 750 nM at MDM2 (res 2-125) (setting [6]). In data set [3], the “binding to MDM2 after proteolysis” value is given as “resistant to proteolysis”.
For the compound `CC(C)C[C@H](NC(=O)[C@H](C)NC(=O)[C@H](CCC(=O)O)NC(=O)[C@H](CC(=O)O)NC(=O)[C@H](C)NC(=O)[C@@H]1CCCN1C(=O)[C@H](CSCC(N)=O)NC(=O)[C@H](CC(N)=O)NC(=O)[C@H](CCCNC(=N)N)NC(=O)[C@H](Cc1ccccc1)NC(=O)[C@H](CCCNC(=N)N)NC(=O)[C@H](CC(=O)O)NC(=O)[C@H](CO)NC(=O)[C@H](CSCC(N)=O)NC(=O)[C@H](C)N)C(=O)N[C@@H](CSCC(N)=O)C(=O)NCC(=O)O` [PK15 linear, AC*SDRFRNC*PADEALC*G] (H-AC(Cam)SDRFRNC(Cam)PADEALC(Cam)G-OH), the “Peptide digestion, intactness scale” value at Cathepsin G (Cathepsin G 0.1, 37° C.) was “−”; on Cathepsin G (Cathepsin G 1 (μg per reaction), 37° C.) it was “−”; with Chymotrypsin (Chymotrypsin 0.01, 37° C.), “+++”; in the data set with Chymotrypsin (Chymotrypsin 1, 37° C.), “−”; in the data set with Chymotrypsin (Chymotrypsin 10, 37° C.), “−”; with Pronase (Pronase 0.01, 37° C.), “+++”. The “Peptide digestion, intactness scale” value was “−” with Pronase (Pronase 10, 37° C.); “−” in the data set with Trypsin (Trypsin 1, 37° C.); “−” with Trypsin (Trypsin 10, 37° C.). Further, the “time within which digested by the proteases in serum” value in [2] is no more than 2 h.
For “CG4L1-PK15L1 TBMB: bicyclic CG4L1-PK15L1 (WO 2009/098450) (ALCIFDLGFCSDRFRNCPADE; linker 3-10-17 via TBMB)”, the “factor of resistance, TBMB conjugate versus linear” value with various proteases is 1-100 fold.
In the case of `CC(C)C[C@@H]1NC(=O)[C@H](CCC(=O)O)NC(=O)[C@@H](NC(=O)[C@@H](N)CO)CSCc2cc3cc(c2)CSC[C@H](NC(=O)[C@H](CCCCN)NC(=O)[C@@H]2CCCN2C(=O)[C@H](CC(N)=O)NC(=O)[C@H](Cc2c[nH]c4ccccc24)NC1=O)C(=O)N[C@@H](CCCNC(=N)N)C(=O)N[C@@H](CC(C)C)C(=O)N[C@@H](CO)C(=O)N1CCC[C@H]1C(=O)N[C@@H](Cc1ccccc1)C(=O)N[C@@H](CCC(=O)O)C(=O)N[C@H](C(=O)N[C@@H](CCCCN)C(=O)NCC(=O)O)CSC3` [PEP10] (HELM PEPTIDE1{S.C.E.L.W.N.P.K.C.R.L.S.P.F.E.C.K.G}|CHEM1{[c1c(C[*:1])cc(C[*:3])cc1C[*:2]]}$PEPTIDE1,CHEM1,2:R3-1:R1|PEPTIDE1,CHEM1,9:R3-1:R2|PEPTIDE1,CHEM1,16:R3-1:R3$$$V2.0), the Kd at MDM2 (res 2-125) (setting [5]) was 267 nM; at MDM2 (res 2-125) (setting [6]), 250 to 750 nM. Also, the “binding to MDM2 after proteolysis” value in data set [3] is “resistant to proteolysis”.
